Results on 25 compounds are retold here after US20240368173A1, “TRICYCLIC GPR65 MODULATORS” (PATHIOS THERAPEUTICS LIMITED, priority 2021, published 2024).

The first assay deals with human recombinant GPR65 (Homo sapiens, UniProt Q8IYL9). Briefly: Human GPR65 cAMP HTRF antagonist assay. The class given is cell-based.
Chain of human recombinant GPR65 (Q8IYL9 whole entry): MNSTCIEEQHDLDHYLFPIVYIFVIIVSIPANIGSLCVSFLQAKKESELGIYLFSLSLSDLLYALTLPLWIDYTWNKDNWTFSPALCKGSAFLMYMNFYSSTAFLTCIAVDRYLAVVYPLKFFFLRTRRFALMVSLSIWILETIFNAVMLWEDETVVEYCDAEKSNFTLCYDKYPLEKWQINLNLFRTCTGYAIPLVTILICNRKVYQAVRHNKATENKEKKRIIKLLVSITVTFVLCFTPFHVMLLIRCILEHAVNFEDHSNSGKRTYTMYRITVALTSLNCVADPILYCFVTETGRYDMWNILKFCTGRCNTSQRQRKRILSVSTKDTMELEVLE
Settings: not given
Summed up:
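1321N1 astrocytoma cells stably expressing hrGPR65, with IBMX and EDTA, were preincubated with compound 30 min at room temperature, then acid-activated at assay pH 7.2 (control pH 7.9) for 30 min. cAMP read by HTRF (665/620 nm ratio); IC50 from 4-parameter fit normalised to high/low controls.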
Background: TR-FRET usually uses a lanthanide donor and a delayed reading to cut background.
The IC50 is the concentration needed to halve the response being measured. Turning to `O=C(Nc1cc(Cl)c(-c2cccnc2)cc1F)N1[C@H]2CC[C@@H]1c1n[nH]c(=O)cc1C2` [Compound 136, (6S,9R)-N-(5-Chloro-2-fluoro-4-(pyridin-3-yl)phenyl)-3-oxo-3,5,6,7,8,9-hexahydro-2H-6,9-epiminocyclohepta[c]pyridazine-10-carboxamide], the IC50 was below 500 nM.

With `O=C(Nc1cc(Cl)c(-c2ccncc2F)cc1F)N1[C@H]2CC[C@@H]1c1n[nH]c(=O)cc1C2` [Compound 138, (6S,9R)-N-(5-Chloro-2-fluoro-4-(3-fluoropyridin-4-yl)phenyl)-3-oxo-3,5,6,7,8,9-hexahydro-2H-6,9-epiminocyclohepta[c]pyridazine-10-carboxamide], the IC50 is below 500 nM.

For `Cn1ncc(-c2cc(F)c(NC(=O)N3[C@H]4CC[C@@H]3c3n[nH]c(=O)cc3C4)cc2Cl)n1` [Compound 139, (6S,9R)-N-(5-Chloro-2-fluoro-4-(2-methyl-2H-1,2,3-triazol-4-yl)phenyl)-3-oxo-3,5,6,7,8,9-hexahydro-2H-6,9-epiminocyclohepta[c]pyridazine-10-carboxamide], the IC50 is below 500 nM.

As to `Cn1nnc2ccc(-c3cc(F)c(NC(=O)N4[C@H]5CC[C@@H]4c4n[nH]c(=O)cc4C5)cc3Cl)cc21` [Compound 141, (6S,9R)-N-(5-Chloro-2-fluoro-4-(1-methyl-1H-benzo[d][1,2,3]triazol-6-yl)phenyl)-3-oxo-3,5,6,7,8,9-hexahydro-2H-6,9-epiminocyclohepta[c]pyridazine-10-carboxamide], the IC50 is below 500 nM.

Take `O=C(Nc1cc(Cl)c(-c2cnn(CC3CC3)c2)cc1F)N1[C@H]2CC[C@@H]1c1n[nH]c(=O)cc1C2` [Compound 144, (6S,9R)-N-(5-Chloro-4-(1-(cyclopropylmethyl)-1H-pyrazol-4-yl)-2-fluorophenyl)-3-oxo-3,5,6,7,8,9-hexahydro-2H-6,9-epiminocyclohepta[c]pyridazine-10-carboxamide]: the IC50 was below 500 nM.

Regarding `O=C(Nc1cc(Cl)c(-c2cnn(-c3ccncc3)c2)cc1F)N1[C@H]2CC[C@@H]1c1n[nH]c(=O)cc1C2` [Compound 145, (6S,9R)-N-(5-Chloro-2-fluoro-4-(1-(pyridin-4-yl)-1H-pyrazol-4-yl)phenyl)-3-oxo-3,5,6,7,8,9-hexahydro-2H-6,9-epiminocyclohepta[c]pyridazine-10-carboxamide], the IC50 was below 500 nM.

With `CN1C(=O)COc2ccc(-c3cc(F)c(NC(=O)N4[C@H]5CC[C@@H]4c4n[nH]c(=O)cc4C5)cc3Cl)cc21` [Compound 147, (6S,9R)-N-(5-Chloro-2-fluoro-4-(4-methyl-3-oxo-3,4-dihydro-2H-benzo[b][1,4]oxazin-6-yl)phenyl)-3-oxo-3,5,6,7,8,9-hexahydro-2H-6,9-epiminocyclohepta[c]pyridazine-10-carboxamide], the half-maximal inhibitory concentration (IC50) is below 500 nM.

For the compound `O=C(Nc1cc(Cl)c(-c2ccnc3[nH]ccc23)cc1F)N1[C@H]2CC[C@@H]1c1n[nH]c(=O)cc1C2` [Compound 148, (6S,9R)-N-(5-Chloro-2-fluoro-4-(1H-pyrrolo[2,3-b]345yridine-4-yl)phenyl)-3-oxo-3,5,6,7,8,9-hexahydro-2H-6,9-epiminocyclohepta[c]pyridazine-10-carboxamide], the IC50 fell in the range of 500 to 5000 nM.

Take `Cc1nn(C)c(C)c1-c1cc(F)c(NC(=O)N2[C@H]3CC[C@@H]2c2n[nH]c(=O)cc2C3)cc1Cl` [Compound 150, (6S,9R)-N-(5-Chloro-2-fluoro-4-(1,3,5-trimethyl-1H-pyrazol-4-yl)phenyl)-3-oxo-3,5,6,7,8,9-hexahydro-2H-6,9-epiminocyclohepta[c]pyridazine-10-carboxamide]: the IC50 lay within 500 to 5000 nM.

In the case of `Cn1ncc2ccc(-c3cc(F)c(NC(=O)N4[C@H]5CC[C@@H]4c4n[nH]c(=O)cc4C5)cc3Cl)cc21` [Compound 152, (6S,9R)-N-(5-Chloro-2-fluoro-4-(1-methyl-1H-indazol-6-yl)phenyl)-3-oxo-3,5,6,7,8,9-hexahydro-2H-6,9-epiminocyclohepta[c]pyridazine-10-carboxamide], the IC50 was below 500 nM.

On to `O=C1Cc2ccc(-c3cc(F)c(NC(=O)N4[C@H]5CC[C@@H]4c4n[nH]c(=O)cc4C5)cc3Cl)cc2N1` [Compound 153, (6S,9R)-N-(5-Chloro-2-fluoro-4-(2-oxoindolin-6-yl)phenyl)-3-oxo-3,5,6,7,8,9-hexahydro-2H-6,9-epiminocyclohepta[c]pyridazine-10-carboxamide], for which the IC50 is below 500 nM.

Turning to `CNc1cnc(F)c2c1[C@H]1CC[C@@H](C2)N1C(=O)Nc1cc(Cl)c(Cl)cc1F` [Compound 159, (5R,8S)—N-(4,5-dichloro-2-fluorophenyl)-1-fluoro-4-(methylamino)-6,7,8,9-tetrahydro-5H-5,8-epiminocyclohepta[c]pyridine-10-carboxamide], the IC50 was below 500 nM.

In the case of `O=C(Nc1cc(Cl)c(-c2ccc3nonc3c2)cc1F)N1[C@H]2CC[C@@H]1c1ccnc(F)c1C2` [Compound 162, (5R,8S)-N-(4-(Benzo[c][1,2,5]oxadiazol-5-yl)-5-chloro-2-fluorophenyl)-1-fluoro-6,7,8,9-tetrahydro-5H-5,8-epiminocyclohepta[c]pyridine-10-carboxamide], the IC50 was below 500 nM.

For `CN1C(=O)Cc2ccc(-c3cc(F)c(NC(=O)N4[C@H]5CC[C@@H]4c4n[nH]c(=O)cc4C5)cc3Cl)cc21` [Compound 163, (6S,9R)-N-(5-Chloro-2-fluoro-4-(1-methyl-2-oxoindolin-6-yl)phenyl)-3-oxo-3,5,6,7,8,9-hexahydro-2H-6,9-epiminocyclohepta[c]pyridazine-10-carboxamide], the IC50 is below 500 nM.

As for `Cn1ncc2cc(-c3cc(F)c(NC(=O)N4[C@H]5CC[C@@H]4c4n[nH]c(=O)cc4C5)cc3Cl)ccc21` [Compound 164, (6S,9R)-N-(5-Chloro-2-fluoro-4-(1-methyl-1H-indazol-5-yl)phenyl)-3-oxo-3,5,6,7,8,9-hexahydro-2H-6,9-epiminocyclohepta[c]pyridazine-10-carboxamide], the IC50 was below 500 nM.

The assay is the same for the next values; noted with them: 1321N1-hrGPR65 cells, cAMP HTRF, assay pH 7.2; read-out: hGPR65 IC50 (Activity of selected compounds according to the invention).
For `O=C(Nc1cc(Cl)c(-c2cccc(CN3CCCC3)c2)cc1F)N1[C@H]2CC[C@@H]1c1n[nH]c(=O)cc1C2` [Compound 135, (6S,9R)-N-(2-Chloro-5-fluoro-3′-(pyrrolidin-1-ylmethyl)-[1,1′-biphenyl]-4-yl)-3-oxo-3,5,6,7,8,9-hexahydro-2H-6,9-epiminocyclohepta[c]pyridazine-10-carboxamide], the IC50 was in the range of 500 to 5000 nM.

On to `O=C(Nc1cc(Cl)c(-c2cncnc2)cc1F)N1[C@H]2CC[C@@H]1c1n[nH]c(=O)cc1C2` [Compound 137, (6S,9R)-N-(5-Chloro-2-fluoro-4-(pyrimidin-5-yl)phenyl)-3-oxo-3,5,6,7,8,9-hexahydro-2H-6,9-epiminocyclohepta[c]pyridazine-10-carboxamide], for which the IC50 lay in the range of 500 to 5000 nM.

For `O=C(Nc1cc(Cl)c(-c2ccc3n[nH]nc3c2)cc1F)N1[C@H]2CC[C@@H]1c1n[nH]c(=O)cc1C2` [Compound 140, (6S,9R)-N-(4-(2H-Benzo[d][1,2,3]triazol-5-yl)-5-chloro-2-fluorophenyl)-3-oxo-3,5,6,7,8,9-hexahydro-2H-6,9-epiminocyclohepta[c]pyridazine-10-carboxamide], the IC50 lay in the range of 500 to 5000 nM.

Take `O=C1NCc2cc(-c3cc(F)c(NC(=O)N4[C@H]5CC[C@@H]4c4n[nH]c(=O)cc4C5)cc3Cl)ccc21` [Compound 142, (6S,9R)-N-(5-Chloro-2-fluoro-4-(1-oxoisoindolin-5-yl)phenyl)-3-oxo-3,5,6,7,8,9-hexahydro-2H-6,9-epiminocyclohepta[c]pyridazine-10-carboxamide]: the IC50 was above 5000 nM.

In the case of `O=C(Nc1cc(Cl)c(-c2cncn2C2CCCCO2)cc1F)N1[C@H]2CC[C@@H]1c1n[nH]c(=O)cc1C2` (stereo partly drawn) [Compound 143, (6S,9R)-N-(5-Chloro-2-fluoro-4-(1-(tetrahydro-2H-pyran-2-yl)-1H-imidazol-5-yl)phenyl)-3-oxo-3,5,6,7,8,9-hexahydro-2H-6,9-epiminocyclohepta[c]pyridazine-10-carboxamide], the IC50 fell in the range of 500 to 5000 nM.

Regarding `O=C1COc2ccc(-c3cc(F)c(NC(=O)N4[C@H]5CC[C@@H]4c4n[nH]c(=O)cc4C5)cc3Cl)cc2N1` [Compound 146, (6S,9R)-N-(5-Chloro-2-fluoro-4-(3-oxo-3,4-dihydro-2H-benzo[b][1,4]oxazin-6-yl)phenyl)-3-oxo-3,5,6,7,8,9-hexahydro-2H-6,9-epiminocyclohepta[c]pyridazine-10-carboxamide], the IC50 lay within 500 to 5000 nM.

For the compound `Cc1n[nH]c(C)c1-c1cc(F)c(NC(=O)N2[C@H]3CC[C@@H]2c2n[nH]c(=O)cc2C3)cc1Cl` [Compound 149, (6S,9R)-N-(5-Chloro-4-(3,5-dimethyl-1H-pyrazol-4-yl)-2-fluorophenyl)-3-oxo-3,5,6,7,8,9-hexahydro-2H-6,9-epiminocyclohepta[c]pyridazine-10-carboxamide], the IC50 lay in the range of 500 to 5000 nM.

Consider `O=C1NCCc2cc(-c3cc(F)c(NC(=O)N4[C@H]5CC[C@@H]4c4n[nH]c(=O)cc4C5)cc3Cl)ccc21` [Compound 151, (6S,9R)-N-(5-Chloro-2-fluoro-4-(1-oxo-1,2,3,4-tetrahydroisoquinolin-6-yl)phenyl)-3-oxo-3,5,6,7,8,9-hexahydro-2H-6,9-epiminocyclohepta[c]pyridazine-10-carboxamide], for which the IC50 was above 5000 nM.

Take `N#Cc1cnc(F)c2c1[C@H]1CC[C@@H](C2)N1C(=O)Nc1cc(Cl)c(Cl)cc1F` [Compound 160, (5R,8S)-4-Cyano-N-(4,5-dichloro-2-fluorophenyl)-1-fluoro-6,7,8,9-tetrahydro-5H-5,8-epiminocyclohepta[c]pyridine-10-carboxamide]: the IC50 was 500 to 5000 nM.

Regarding `CNCCCOc1cnc(F)c2c1[C@H]1CC[C@@H](C2)N1C(=O)Nc1cc(Cl)c(C(F)(F)F)cc1F` [Compound 161, (5R,8S)—N-(5-Chloro-2-fluoro-4-(trifluoromethyl)phenyl)-1-fluoro-4-(3-(methylamino)propoxy)-6,7,8,9-tetrahydro-5H-5,8-epiminocyclohepta[c]pyridine-10-carboxamide], the IC50 lay within 500 to 5000 nM.
